Measured values taken from patent US20240246946A1, “MODULATORS OF TREX1” (Constellation Pharmaceuticals, Inc., priority 2021, published 2024).

Assays:
full length human TREX1 = target: T1, full length human TREX1 (Homo sapiens, UniProt Q9NSU2); assay: hTREX1 Biochemical Assay (fluorescence, dsDNA substrate degradation); conditions: biochemical, read-out: hTREX1 IC50
T1 construct: N-terminally His-Tev tagged full length human TREX1; made in house; host or cells: E. coli
T1 sequence (Q9NSU2 1-314): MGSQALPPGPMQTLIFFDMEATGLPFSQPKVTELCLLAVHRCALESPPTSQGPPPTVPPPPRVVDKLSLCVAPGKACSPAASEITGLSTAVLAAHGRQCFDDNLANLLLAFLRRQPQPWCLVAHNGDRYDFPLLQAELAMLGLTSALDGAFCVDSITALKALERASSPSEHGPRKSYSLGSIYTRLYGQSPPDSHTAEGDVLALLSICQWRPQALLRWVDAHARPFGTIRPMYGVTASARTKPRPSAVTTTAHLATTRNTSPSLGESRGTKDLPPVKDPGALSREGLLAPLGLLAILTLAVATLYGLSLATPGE
Description: (§1) Degradation of the dsDNA liberates free fluorophore to produce a fluorescent signal. Specifically, 7.5 μL of N-terminally His-Tev tagged full length human TREX1 (expressed in E. coli and purified in house) in reaction buffer (50 mM Tris, 150 mM NaCl, 2 mM DTT, 0.1 mg/mL BSA, 0.01% (w/v) Tween-20, 5 mM MgCl2, pH 7.4) was added to a 384-well Black ProxiPlate Plus (PerkinElmer) which already contained compound (150 nL) at varying concentrations as a 10 point dose-response in DMSO. The plate was incubated at 25° C. for 4 hours. Reactions were initiated by adding 7.5 μL of dsDNA substrate (Strand A: 5′ TEX615/GCT AGG CAG 3′; Strand B: 5′ CTG CCT AGC/IAbRQSp (Integrated DNA Technologies)) in reaction buffer. Final concentrations were 4 pM TREX1, 60 nM dsDNA substrate in reaction buffer with 1.0% DMSO (v/v). After 18 hours at 25° C., reactions were quenched by the addition of 2 μL of 500 mM EDTA.

full length mouse TREX1 = target: T2, full length mouse TREX1 (Mus musculus, UniProt Q91XB0); assay: mTREX1 Biochemical Assay (fluorescence, dsDNA substrate degradation); conditions: biochemical, read-out: mTREX1 IC50
T2 construct: N-terminally His-Tev tagged full length mouse TREX1; made in house; host or cells: E. coli
T2 sequence (Q91XB0 1-314): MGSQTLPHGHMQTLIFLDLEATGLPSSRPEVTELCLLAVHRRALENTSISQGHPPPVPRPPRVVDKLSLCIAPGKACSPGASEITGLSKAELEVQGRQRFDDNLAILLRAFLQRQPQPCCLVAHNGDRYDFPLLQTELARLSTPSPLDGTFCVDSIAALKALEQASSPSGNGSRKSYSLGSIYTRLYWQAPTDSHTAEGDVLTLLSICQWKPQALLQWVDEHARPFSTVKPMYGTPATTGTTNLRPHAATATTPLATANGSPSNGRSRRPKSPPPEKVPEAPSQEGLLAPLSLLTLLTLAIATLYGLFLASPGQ
Description: as §1, with “length mouse” for “length human”, “were 6” for “were 4”

Row | IC50 (full length human TREX1) [nM] | IC50 (full length mouse TREX1) [nM] | SMILES
1 | > 10 | > 10 | CCn1cc(C(c2ccc(F)cc2C#N)C(C)c2nc(C(=O)Nc3cnoc3)c(O)c(=O)n2C)cn1 (single isomer, unassigned) [Example 16 D2E2]
2 | > 10 | > 10 | CCn1cc(C(c2cc(F)ccc2C#N)C(C)c2nc(C(=O)Nc3cnoc3)c(O)c(=O)n2C)cn1 (single isomer, unassigned) [Example 17 D1E1]
3 | > 10 | > 10 | CCn1cc(C(c2cc(F)ccc2C#N)C(C)c2nc(C(=O)Nc3cnoc3)c(O)c(=O)n2C)cn1 (single isomer, unassigned) [Example 17 D2E2]
4 | > 10 | > 10 | COCCn1cc(C(c2cc(F)ccc2C#N)C(C)c2nc(C(=O)Nc3cnoc3)c(O)c(=O)n2C)cn1 (single isomer, unassigned) [Example 18 D1E1]
5 | > 10 | > 10 | COCCn1cc(C(c2cc(F)ccc2C#N)C(C)c2nc(C(=O)Nc3cnoc3)c(O)c(=O)n2C)cn1 (single isomer, unassigned) [Example 18 D2E1]
6 | > 10 | > 10 | COCCn1cc(C(c2cc(F)ccc2C#N)C(C)c2nc(C(=O)Nc3cnoc3)c(O)c(=O)n2C)cn1 (single isomer, unassigned) [Example 18 D2E2]
7 | > 10 | > 10 | CC(c1nc(C(=O)Nc2cnoc2)c(O)c(=O)n1C)C(c1cnn(C)c1)c1c(C#N)cccc1C#N (single isomer, unassigned) [Example 19 D1E1]
8 | > 10 | > 10 | CC(c1nc(C(=O)Nc2cnoc2)c(O)c(=O)n1C)C(c1cnn(C)c1)c1c(C#N)cccc1C#N (single isomer, unassigned) [Example 19 D2E1]
9 | > 10 | > 10 | CC(c1nc(C(=O)Nc2cnoc2)c(O)c(=O)n1C)C(c1cnn(C)c1)c1c(C#N)cccc1C#N (single isomer, unassigned) [Example 19 D2E2]
10 | > 10 | > 10 | CC(c1nc(C(=O)Nc2cnoc2)c(O)c(=O)n1C)C(c1cnn(CCN2CCOCC2)c1)c1ccccc1C#N (single isomer, unassigned) [Example 20 D1E2]
11 | > 10 | > 10 | CC(c1nc(C(=O)Nc2cnoc2)c(O)c(=O)n1C)C(c1cnn(CCN2CCOCC2)c1)c1ccccc1C#N (single isomer, unassigned) [Example 20 D2E2]
12 | > 10 | > 10 | CC(c1nc(C(=O)Nc2cnoc2)c(O)c(=O)n1C)C(c1cnn(CCN2CCN(C(=O)OC(C)(C)C)CC2)c1)c1ccccc1C#N (single isomer, unassigned) [Example 21 D1E2]
13 | > 10 | > 10 | CC(c1nc(C(=O)Nc2cnoc2)c(O)c(=O)n1C)C(c1cnn(CCN2CCN(C(=O)OC(C)(C)C)CC2)c1)c1ccccc1C#N (single isomer, unassigned) [Example 21 D2E2]
14 | > 10 | > 10 | CC(c1nc(C(=O)Nc2cnoc2)c(O)c(=O)n1C)C(c1cnn(CC(F)(F)F)c1)c1ccccc1C#N (single isomer, unassigned) [Example 22 D1E2]
15 | > 10 | > 10 | CC(c1nc(C(=O)Nc2cnoc2)c(O)c(=O)n1C)C(c1cnn(CC(F)(F)F)c1)c1ccccc1C#N (single isomer, unassigned) [Example 22 D2E2]
16 | > 10 | > 10 | CC(c1nc(C(=O)Nc2cnoc2)c(O)c(=O)n1C)C(c1cnn(CC2CC2)c1)c1ccccc1C#N (single isomer, unassigned) [Example 23 D1E1]
17 | > 10 | > 10 | CC(c1nc(C(=O)Nc2cnoc2)c(O)c(=O)n1C)C(c1cnn(CC2CC2)c1)c1ccccc1C#N (single isomer, unassigned) [Example 23 D2E1]

Row | IC50 (full length human TREX1) [nM] | IC50 (full length mouse TREX1) [nM] | SMILES
18 | > 10 | > 10 | CC(c1nc(C(=O)Nc2cnoc2)c(O)c(=O)n1C)C(c1cnn(CC2CC2)c1)c1ccccc1C#N (single isomer, unassigned) [Example 23 D2E2]
19 | > 10 | > 10 | COCCCn1cc(C(c2ccccc2C#N)C(C)c2nc(C(=O)Nc3cnoc3)c(O)c(=O)n2C)cn1 (single isomer, unassigned) [Example 24 D1E2]
20 | > 10 | > 10 | COCCCn1cc(C(c2ccccc2C#N)C(C)c2nc(C(=O)Nc3cnoc3)c(O)c(=O)n2C)cn1 (single isomer, unassigned) [Example 24 D2E1]
21 | > 10 | > 10 | COCCCn1cc(C(c2ccccc2C#N)C(C)c2nc(C(=O)Nc3cnoc3)c(O)c(=O)n2C)cn1 (single isomer, unassigned) [Example 24 D2E2]
22 | > 10 | > 10 | CC(c1nc(C(=O)Nc2cnoc2)c(O)c(=O)n1C)C(c1cnn(C)c1)c1cc(F)c(F)cc1C#N (single isomer, unassigned) [Example 25 D1E2]
23 | > 10 | > 10 | CC(c1nc(C(=O)Nc2cnoc2)c(O)c(=O)n1C)C(c1cnn(C)c1)c1cc(F)c(F)cc1C#N (single isomer, unassigned) [Example 25 D2E1]
24 | > 10 | > 10 | CC(c1nc(C(=O)Nc2cnoc2)c(O)c(=O)n1C)C(c1cnn(C)c1)c1cc(F)c(F)cc1C#N (single isomer, unassigned) [Example 25 D2E2]
25 | > 10 | > 10 | CC(c1nc(C(=O)Nc2cnoc2)c(O)c(=O)n1C)C(c1cnn(C)c1)c1cc(Cl)ccc1C#N (single isomer, unassigned) [Example 26 D1E1]
26 | > 10 | > 10 | CC(c1nc(C(=O)Nc2cnoc2)c(O)c(=O)n1C)C(c1cnn(C)c1)c1cc(Cl)ccc1C#N (single isomer, unassigned) [Example 26 D2E2]
27 | > 10 | > 10 | CC(c1nc(C(=O)Nc2cnoc2)c(O)c(=O)n1C)C(c1cnn(C)c1)c1ccc(Cl)cc1C#N (single isomer, unassigned) [Example 27 D2E1]
28 | > 10 | > 10 | CC(c1nc(C(=O)Nc2cnoc2)c(O)c(=O)n1C)C(c1cnn(C)c1)c1ccc(Cl)cc1C#N (single isomer, unassigned) [Example 27 D2E2]
29 | > 10 | > 10 | CC(c1nc(C(=O)Nc2cnoc2)c(O)c(=O)n1C)C(c1cnn(C)c1)c1cc(F)c(F)cc1Cl (single isomer, unassigned) [Example 28 D1E2]
30 | > 10 | > 10 | CC(c1nc(C(=O)Nc2cnoc2)c(O)c(=O)n1C)C(c1cnn(C)c1)c1cc(F)c(F)cc1Cl (single isomer, unassigned) [Example 28 D2E1]
31 | > 10 | > 10 | CC(c1nc(C(=O)Nc2cnoc2)c(O)c(=O)n1C)C(c1cnn(C)c1)c1cc(F)c(F)cc1Cl (single isomer, unassigned) [Example 28 D2E2]
32 | > 10 | > 10 | CC(c1nc(C(=O)Nc2cnoc2)c(O)c(=O)n1C)C(c1cnn(C)c1)c1cc(C(F)(F)F)ccc1C#N (single isomer, unassigned) [Example 29 D1E2]
33 | > 10 | > 10 | CC(c1nc(C(=O)Nc2cnoc2)c(O)c(=O)n1C)C(c1cnn(C)c1)c1cc(C(F)(F)F)ccc1C#N (single isomer, unassigned) [Example 29 D2E1]
34 | > 10 | > 10 | CC(c1nc(C(=O)Nc2cnoc2)c(O)c(=O)n1C)C(c1cnn(C)c1)c1cc(C(F)(F)F)ccc1C#N (single isomer, unassigned) [Example 29 D2E2]
